Results reported in US10894784B2, “Heteroarylbenzimidazole compounds” (BAYER PHARMA AKTIENGESELLSCHAFT, priority 2015, dated 2021).

Target: TBK1 (Homo sapiens (Human), UniProt Q9UHD2)
Assay: TBK1 low ATP kinase assay (in vitro assay 1)
Format: biochemical
Conditions: in vitro assay 1, read-out: TBK1 low ATP kinase assay IC50

Chain of TBK1 (Q9UHD2 whole entry): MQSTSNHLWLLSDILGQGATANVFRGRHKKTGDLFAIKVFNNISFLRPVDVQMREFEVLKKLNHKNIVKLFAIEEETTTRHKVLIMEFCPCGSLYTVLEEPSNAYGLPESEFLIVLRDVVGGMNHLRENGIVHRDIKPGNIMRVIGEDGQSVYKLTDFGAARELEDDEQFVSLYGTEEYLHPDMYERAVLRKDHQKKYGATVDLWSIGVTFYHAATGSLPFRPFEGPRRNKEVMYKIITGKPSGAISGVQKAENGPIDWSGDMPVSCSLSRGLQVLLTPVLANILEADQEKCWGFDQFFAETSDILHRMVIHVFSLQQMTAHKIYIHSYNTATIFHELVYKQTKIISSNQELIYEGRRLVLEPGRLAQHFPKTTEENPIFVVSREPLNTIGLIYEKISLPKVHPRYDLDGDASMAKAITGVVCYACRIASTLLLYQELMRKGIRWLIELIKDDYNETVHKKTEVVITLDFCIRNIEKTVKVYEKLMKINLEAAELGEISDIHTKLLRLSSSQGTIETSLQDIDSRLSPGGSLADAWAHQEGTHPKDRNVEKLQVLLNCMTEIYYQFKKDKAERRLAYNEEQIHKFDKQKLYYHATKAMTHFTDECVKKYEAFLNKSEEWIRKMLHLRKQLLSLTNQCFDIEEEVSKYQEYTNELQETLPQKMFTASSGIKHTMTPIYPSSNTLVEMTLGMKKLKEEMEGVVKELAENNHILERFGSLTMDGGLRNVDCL

Row | IC50 | Compound
1 | 5.95 nM | CC(c1ccnc(Nc2nc3ccc(-c4cnn(CC5CCC5)c4)c(F)c3[nH]2)c1)N1CCN(C(=O)CC(F)(F)F)CC1 (single isomer, unassigned) [Example 171.02, 1-(4-{(1R or 1S)-1-[2-({6-[1-(cyclobutylmethyl)-1H-pyrazol-4-yl]-7-fluoro-1H-benzimidazol-2-yl}amino)pyridin-4-yl]ethyl}piperazin-1-yl)-3,3,3-trifluoropropan-1-one]
2 | 9.7 nM | O=C(C1CC1)N1CCN(Cc2ccnc(Nc3nc4ccc(-c5ccnc(C(F)F)c5)cc4[nH]3)c2)CC1 [Example 139.03, cyclopropyl(4-{[2-({6-[2-(difluoromethyl)pyridin-4-yl]-1H-benzimidazol-2-yl}amino)pyridin-4-yl]methyl}piperazin-1-yl)methanone]
3 | 97.8 nM | CC(C)(C)OC(=O)N1CCN(Cc2ccnc(Nc3nc4ccc(-c5nc(C6CC6)no5)cc4[nH]3)c2)CC1 [Example 17.01, tert-butyl 4-[(2-{[6-(3-cyclopropyl-1,2,4-oxadiazol-5-yl)-1H-benzimidazol-2-yl]amino}pyridin-4-yl)methyl]piperazine-1-carboxylate]
4 | 43.8 nM | CC(C)(C)OC(=O)N1CCN(Cc2ccnc(Nc3nc4ccc(-c5cc(C6=CCOCC6)ncn5)cc4[nH]3)c2)CC1 [Example 198.01, tert-butyl 4-{[2-({6-[6-(3,6-dihydro-2H-pyran-4-yl)pyrimidin-4-yl]-1H-benzimidazol-2-yl}amino)pyridin-4-yl]methyl}piperazine-1-carboxylate]
5 | 3610 nM | Cc1c(-c2ccc3nc(Nc4cc(CN5CCN(C(=O)C6CC6)CC5)ccn4)[nH]c3c2)ccnc1OC(C)C [Example 11.01, cyclopropyl(4-{[2-({6-[3-methyl-2-(propan-2-yloxy)pyridin-4-yl]-1H-benzimidazol-2-yl}amino)pyridin-4-yl]methyl}piperazin-1-yl)methanone]
6 | 5.4 nM | COc1c(-c2ccc3nc(Nc4cc(C(C)N5CCN(C(=O)CC(F)(F)F)CC5)ccn4)[nH]c3c2)ncnc1N(C)C (single isomer, unassigned) [Example 107.02.03, 1-(4-{(1R or 1S)-1-[2-({6-[6-(dimethylamino)-5-methoxypyrimidin-4-yl]-1H-benzimidazol-2-yl}amino)pyridin-4-yl]ethyl}piperazin-1-yl)-3,3,3-trifluoropropan-1-one]
7 | 131 nM | COc1cc(-c2ccc3nc(Nc4cc(CN5CCN(C(=O)OC(C)(C)C)CC5)ccn4)[nH]c3c2)ccn1 [Example 02.01, tert-butyl 4-[(2-{[6-(2-methoxypyridin-4-yl)-1H-benzimidazol-2-yl]amino}pyridin-4-yl)methyl]piperazine-1-carboxylate]
8 | 11 nM | O=C(CC(F)(F)F)N1CCN(Cc2ccnc(Nc3nc4ccc(-c5ccnc(N6CCOCC6)c5)cc4[nH]3)c2)CC1 [Example 134.02, 3,3,3-trifluoro-1-(4-{[2-({6-[2-(morpholin-4-yl)pyridin-4-yl]-1H-benzimidazol-2-yl}amino)pyridin-4-yl]methyl}piperazin-1-yl)propan-1-one]
9 | 13 nM | CN(CC1CC1)c1cc(-c2ccc3nc(Nc4cc(CN5CCN(C(=O)C6CC6)CC5)ccn4)[nH]c3c2)ncn1 [Example 141.03, cyclopropyl[4-({2-[(6-{6-[(cyclopropylmethyl)(methyl)amino]pyrimidin-4-yl}-1H-benzimidazol-2-yl)amino]pyridin-4-yl}methyl)piperazin-1-yl]methanone]
10 | 2 nM | CCNc1cc(-c2ccc3nc(Nc4cc(CN5CCN(C(=O)CC(F)(F)F)CC5)ccn4)[nH]c3c2)ncn1 [Example 149.02, 1-(4-{[2-({6-[6-(ethylamino)pyrimidin-4-yl]-1H-benzimidazol-2-yl}amino)pyridin-4-yl]methyl}piperazin-1-yl)-3,3,3-trifluoropropan-1-one]
11 | 170 nM | COc1ccccc1N1CCN(Cc2ccnc(Nc3nc4ccc(-c5nc(C)no5)cc4[nH]3)c2)CC1 [Example 101.07, N-(4-{[4-(2-methoxyphenyl)piperazin-1-yl]methyl}pyridin-2-yl)-6-(3-methyl-1,2,4-oxadiazol-5-yl)-1H-benzimidazol-2-amine]
12 | 120 nM | CC(c1ccnc(Nc2nc3ccc(-c4cnn(C(C)C5CC5)c4)cc3[nH]2)c1)N1CCN(C(=O)OC(C)(C)C)CC1 (single isomer, unassigned) [Example 74.01, tert-butyl 4-[(1R or 1S)-1-{2-[(6-{1-[(1RS)-1-cyclopropylethyl]-1H-pyrazol-4-yl}-1H-benzimidazol-2-yl)amino]pyridin-4-yl}ethyl]piperazine-1-carboxylate]
13 | 5.19 nM | O=C(C1CC1)N1CCN(Cc2ccnc(Nc3nc4ccc(-c5ccnc(OCC6CC6)n5)cc4[nH]3)c2)CC1 [Example 62.01.04, cyclopropyl(4-{[2-({6-[2-(cyclopropylmethoxy)pyrimidin-4-yl]-1H-benzimidazol-2-yl}amino)pyridin-4-yl]methyl}piperazin-1-yl)methanone]
14 | 2.3 nM | CCNc1cc(-c2ccc3nc(Nc4cc(CN5CCN(C(=O)C6CC6)CC5)ccn4)[nH]c3c2)ncn1 [Example 149.03, cyclopropyl(4-{[2-({6-[6-(ethylamino)pyrimidin-4-yl]-1H-benzimidazol-2-yl}amino)pyridin-4-yl]methyl}piperazin-1-yl)methanone]
15 | 2.2 nM | COc1c(C)ncnc1-c1ccc2nc(Nc3cc(C(C)N4CCN(C(=O)CC(F)(F)F)CC4)ccn3)[nH]c2c1 (single isomer, unassigned) [Example 83.03, 3,3,3-trifluoro-1-{4-[(1R or 1S)-1-(2-{[6-(5-methoxy-6-methylpyrimidin-4-yl)-1H-benzimidazol-2-yl]amino}pyridin-4-yl)ethyl]piperazin-1-yl}propan-1-one]
16 | 0.33 nM | CC(c1ccnc(Nc2nc3ccc(-c4cc(N5CCCC5)ncn4)cc3[nH]2)c1)N1CCN(C(=O)C2CC2)CC1 (single isomer, unassigned) [Example 117.02, cyclopropyl(4-{(1R or 1S)-1-[2-({6-[6-(pyrrolidin-1-yl)pyrimidin-4-yl]-1H-benzimidazol-2-yl}amino)pyridin-4-yl]ethyl}piperazin-1-yl)methanone]
17 | 5.9 nM | CC(C)N(C)c1cc(-c2ccc3nc(Nc4cc(CN5CCN(C(=O)CC(F)(F)F)CC5)ccn4)[nH]c3c2)ncn1 [Example 153.02, 3,3,3-trifluoro-1-[4-({2-[(6-{6-[methyl(propan-2-yl)amino]pyrimidin-4-yl}-1H-benzimidazol-2-yl)amino]pyridin-4-yl}methyl)piperazin-1-yl]propan-1-one]
18 | 0.566 nM | CC(c1ccnc(Nc2nc3ccc(-c4cc(N5CC(C(F)(F)F)C5)ncn4)cc3[nH]2)c1)N1CCN(C(=O)[C@@H]2CC2(F)F)CC1 (single isomer, unassigned) [Example 164.05, ((1RS)-2,2-difluorocyclopropyl){4-[(1R or 1S)-1-[2-[(6-{6-[3-(trifluoromethyl)azetidin-1-yl]pyrimidin-4-yl}-1H-benzimidazol-2-yl)amino]pyridin-4-yl}ethyl]piperazin-1-yl}methanone]
19 | 4.5 nM | O=C(CC(F)(F)F)N1CCN(Cc2ccnc(Nc3nc4ccc(-c5cc(OCC6CC6)ncn5)cc4[nH]3)c2)CC1 [Example 80.02, 1-(4-{[2-({6-[6-(cyclopropylmethoxy)pyrimidin-4-yl]-1H-benzimidazol-2-yl}amino)pyridin-4-yl]methyl}piperazin-1-yl)-3,3,3-trifluoropropan-1-one]
20 | 79 nM | COc1nccc(-c2ccc3nc(Nc4cc(CN5CCN(C(=O)CC(F)(F)F)CC5)ccn4)[nH]c3c2)n1 [Example 25.01.04, 3,3,3-trifluoro-1-{4-[(2-{[6-(2-methoxypyrimidin-4-yl)-1H-benzimidazol-2-yl]amino}pyridin-4-yl)methyl]piperazin-1-yl}propan-1-one]
21 | 610 nM | Cc1cc(-c2ccc3nc(Nc4cc(C(C)N5CCN(C(=O)OC(C)(C)C)CC5)ccn4)[nH]c3c2)n(C)n1 (single isomer, unassigned) [Example 89.01, tert-butyl 4-[(1R or 1S)-1-(2-{[6-(1,3-dimethyl-1H-pyrazol-5-yl)-1H-benzimidazol-2-yl]amino}pyridin-4-yl)ethyl]piperazine-1-carboxylate]
22 | 6.29 nM | COc1cncnc1-c1ccc2nc(Nc3cc(C(C)N4CCN(C(=O)C5CC5)CC4)ccn3)[nH]c2c1 (racemic) [Example 35.02.03, (rac)-cyclopropyl{4-[1-(2-{[6-(5-methoxypyrimidin-4-yl)-1H-benzimidazol-2-yl]amino}pyridin-4-yl)ethyl]piperazin-1-yl}methanone]
23 | 32 nM | Cc1cc(-c2ccc3nc(Nc4cc(CN5CCN(C(=O)C6CC6)CC5)ccn4)[nH]c3c2)c(F)cn1 [Example 131.03, cyclopropyl{4-[(2-{[6-(5-fluoro-2-methylpyridin-4-yl)-1H-benzimidazol-2-yl]amino}pyridin-4-yl)methyl]piperazin-1-yl}methanone]
24 | 6.6 nM | O=C(CC(F)(F)F)N1CCN(Cc2ccnc(Nc3nc4ccc(-c5cc(NCC6CC6)ncn5)cc4[nH]3)c2)CC1 [Example 142.02, 1-[4-({2-[(6-{6-[(cyclopropylmethyl)amino]pyrimidin-4-yl}-1H-benzimidazol-2-yl)amino]pyridin-4-yl}methyl)piperazin-1-yl]-3,3,3-trifluoropropan-1-one]
25 | 384 nM | COc1cnc(C)cc1-c1ccc2nc(Nc3cc(CN4CCN(C(=O)C5CCC5)CC4)ccn3)[nH]c2c1 [Example 07.03, cyclobutyl{4-[(2-{[6-(5-methoxy-2-methylpyridin-4-yl)-1H-benzimidazol-2-yl]amino}pyridin-4-yl)methyl]piperazin-1-yl}methanone]
26 | 43.4 nM | COc1cc(-c2ccc3nc(Nc4cc(CN5CCN(C(=O)C6CCC6)CC5)ccn4)[nH]c3c2)ccn1 [Example 02.04, cyclobutyl{4-[(2-{[6-(2-methoxypyridin-4-yl)-1H-benzimidazol-2-yl]amino}pyridin-4-yl)methyl]piperazin-1-yl}methanone]

Row | Compound | IC50
27 | Cc1noc(-c2ccc3nc(Nc4cc(CN5CCN(C(=O)c6ccco6)CC5)ccn4)[nH]c3c2)n1 [Example 101.14, furan-2-yl{4-[(2-{[6-(3-methyl-1,2,4-oxadiazol-5-yl)-1H-benzimidazol-2-yl]amino}pyridin-4-yl)methyl]piperazin-1-yl}methanone] | 430 nM
